Laboratory results from patent publication US6517742B1, “Sunscreen agents, photoprotective cosmetic compositions containing them and uses thereof” (L'Oreal, priority 1996, dated 2003).

Experiment: UV absorption spectrum in ethanol (λmax, εmax)
Format: physicochemical
Design: UV εmax: unit not given beside the values
Conditions: for UV εmax: at λmax

Compound | UV λmax (Ethanol) | UV εmax (Ethanol) | UV λmax (95% Ethanol) | UV εmax (95% Ethanol)
2-(butyl 4′-ylaminobenzoate)-4,6-bis{[1,3,3,3-tetramethyl-1-[(trimethylsilyl)oxy]disiloxanyl]propyl-3-ylamino}-s-triazine [Example 1] | 300 nm | 40,800 | – | –
Cc1cc(Nc2nc(NCCC[Si](C)(O[Si](C)(C)C)O[Si](C)(C)C)nc(NCCC[Si](C)(O[Si](C)(C)C)O[Si](C)(C)C)n2)c(O)c(-n2nc3ccccc3n2)c1 [Example 4, 2-(2-benzotriazol-2-yl-4-methyl-6-ylaminophenol)-4,6-bis{[1,3,3,3-tetramethyl-1-[(trimethylsilyl)oxy]disiloxanyl]propyl-3-ylamino}-s-triazine] | 324 nm | 22,000 | – | –

The next lines start with the values.

UV λmax (Ethanol) | UV εmax (Ethanol) | UV λmax (95% Ethanol) | UV εmax (95% Ethanol) | Compound
354 nm | 66,460 | – | – | CC12CCC(C(=Cc3ccc(Nc4nc(NCCC[Si](C)(O[Si](C)(C)C)O[Si](C)(C)C)nc(Nc5ccc(C=C6C(=O)C7(C)CCC6C7(C)C)cc5)n4)cc3)C1=O)C2(C)C [Example 2, 2,4-bis(4′-ylamnobenzylidenecamphor)-6-{[1,3,3,3-tetramethyl-1-[(trimethylsilyl)oxy]disiloxanyl]propyl-3-ylamino}-s-triazine]
– | – | 310 nm | 75,510 | CCCCOC(=O)c1ccc(Nc2nc(NCCC[Si](C)(O[Si](C)(C)C)O[Si](C)(C)C)nc(Nc3ccc(C(=O)OCCCC)cc3)n2)cc1 [Example 3, 2,4-bis(butyl 4′-ylaminobenzoate)-6-{[1,3,3,3-tetramethyl-1-[(trimethylsilyl)oxy]disiloxanyl]propyl-3-ylamino}-s-triazine]
356.5 nm | 65,650 | – | – | CC(C)COC(=O)C(=Cc1ccc(Nc2nc(NCCC[Si](C)(O[Si](C)(C)C)O[Si](C)(C)C)nc(Nc3ccc(C=C(C(=O)OCC(C)C)C(=O)OCC(C)C)cc3)n2)cc1)C(=O)OCC(C)C [Example 5, 2,4-bis(diisobutyl 4′-ylaminobenzalmalonate)-6-{[1,1,1,3-tetramethyl-1-[(trimethylsilyl)oxy]disiloxanyl]propyl-3-ylamino}-s-triazine]
